# Where two headings read alike, the source gives them in different places.
# Tests used:
# KDM4C = molecular target: T1, KDM4C (Homo sapiens, UniProt Q9H3R0); assay: Biochemical KDM inhibition assay (LANCE), KDM4C; settings: read-out: Biochemical IC50 KDM 4C
# T1 sequence (Q9H3R0 1-1056): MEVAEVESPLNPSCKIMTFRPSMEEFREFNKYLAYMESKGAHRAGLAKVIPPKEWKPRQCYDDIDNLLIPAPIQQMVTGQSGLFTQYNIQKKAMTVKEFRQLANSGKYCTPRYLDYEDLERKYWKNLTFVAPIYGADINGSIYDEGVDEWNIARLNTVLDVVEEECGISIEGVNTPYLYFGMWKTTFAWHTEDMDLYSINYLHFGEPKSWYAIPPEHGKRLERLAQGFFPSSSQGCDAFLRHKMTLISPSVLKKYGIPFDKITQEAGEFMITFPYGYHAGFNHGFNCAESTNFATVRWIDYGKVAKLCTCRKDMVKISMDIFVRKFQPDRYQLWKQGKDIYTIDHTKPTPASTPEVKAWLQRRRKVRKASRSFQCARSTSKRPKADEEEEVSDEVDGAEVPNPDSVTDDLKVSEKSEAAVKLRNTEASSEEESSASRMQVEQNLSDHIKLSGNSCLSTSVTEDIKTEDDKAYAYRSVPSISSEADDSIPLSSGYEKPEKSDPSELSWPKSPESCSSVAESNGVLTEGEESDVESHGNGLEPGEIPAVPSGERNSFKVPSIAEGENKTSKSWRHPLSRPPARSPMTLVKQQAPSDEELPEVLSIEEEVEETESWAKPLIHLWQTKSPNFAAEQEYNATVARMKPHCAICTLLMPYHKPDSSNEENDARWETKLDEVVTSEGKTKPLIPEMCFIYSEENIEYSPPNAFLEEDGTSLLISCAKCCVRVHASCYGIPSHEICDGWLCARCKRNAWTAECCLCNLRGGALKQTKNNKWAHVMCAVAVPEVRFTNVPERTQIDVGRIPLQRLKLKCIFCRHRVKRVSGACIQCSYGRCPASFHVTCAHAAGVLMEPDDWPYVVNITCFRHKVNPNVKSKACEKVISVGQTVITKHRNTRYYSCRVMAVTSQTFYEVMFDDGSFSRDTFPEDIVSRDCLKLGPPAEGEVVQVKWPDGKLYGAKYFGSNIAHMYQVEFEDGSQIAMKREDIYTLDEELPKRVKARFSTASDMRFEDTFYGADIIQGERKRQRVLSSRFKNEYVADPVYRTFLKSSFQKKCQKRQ
# KDM6A = molecular target: T2, KDM6A (Homo sapiens, UniProt O15550); assay: Biochemical KDM inhibition assay (LANCE), KDM6A; settings: read-out: Biochemical IC50 KDM 6A
# T2 construct: host or cells: Sf9 cells
# T2 sequence (O15550 whole entry): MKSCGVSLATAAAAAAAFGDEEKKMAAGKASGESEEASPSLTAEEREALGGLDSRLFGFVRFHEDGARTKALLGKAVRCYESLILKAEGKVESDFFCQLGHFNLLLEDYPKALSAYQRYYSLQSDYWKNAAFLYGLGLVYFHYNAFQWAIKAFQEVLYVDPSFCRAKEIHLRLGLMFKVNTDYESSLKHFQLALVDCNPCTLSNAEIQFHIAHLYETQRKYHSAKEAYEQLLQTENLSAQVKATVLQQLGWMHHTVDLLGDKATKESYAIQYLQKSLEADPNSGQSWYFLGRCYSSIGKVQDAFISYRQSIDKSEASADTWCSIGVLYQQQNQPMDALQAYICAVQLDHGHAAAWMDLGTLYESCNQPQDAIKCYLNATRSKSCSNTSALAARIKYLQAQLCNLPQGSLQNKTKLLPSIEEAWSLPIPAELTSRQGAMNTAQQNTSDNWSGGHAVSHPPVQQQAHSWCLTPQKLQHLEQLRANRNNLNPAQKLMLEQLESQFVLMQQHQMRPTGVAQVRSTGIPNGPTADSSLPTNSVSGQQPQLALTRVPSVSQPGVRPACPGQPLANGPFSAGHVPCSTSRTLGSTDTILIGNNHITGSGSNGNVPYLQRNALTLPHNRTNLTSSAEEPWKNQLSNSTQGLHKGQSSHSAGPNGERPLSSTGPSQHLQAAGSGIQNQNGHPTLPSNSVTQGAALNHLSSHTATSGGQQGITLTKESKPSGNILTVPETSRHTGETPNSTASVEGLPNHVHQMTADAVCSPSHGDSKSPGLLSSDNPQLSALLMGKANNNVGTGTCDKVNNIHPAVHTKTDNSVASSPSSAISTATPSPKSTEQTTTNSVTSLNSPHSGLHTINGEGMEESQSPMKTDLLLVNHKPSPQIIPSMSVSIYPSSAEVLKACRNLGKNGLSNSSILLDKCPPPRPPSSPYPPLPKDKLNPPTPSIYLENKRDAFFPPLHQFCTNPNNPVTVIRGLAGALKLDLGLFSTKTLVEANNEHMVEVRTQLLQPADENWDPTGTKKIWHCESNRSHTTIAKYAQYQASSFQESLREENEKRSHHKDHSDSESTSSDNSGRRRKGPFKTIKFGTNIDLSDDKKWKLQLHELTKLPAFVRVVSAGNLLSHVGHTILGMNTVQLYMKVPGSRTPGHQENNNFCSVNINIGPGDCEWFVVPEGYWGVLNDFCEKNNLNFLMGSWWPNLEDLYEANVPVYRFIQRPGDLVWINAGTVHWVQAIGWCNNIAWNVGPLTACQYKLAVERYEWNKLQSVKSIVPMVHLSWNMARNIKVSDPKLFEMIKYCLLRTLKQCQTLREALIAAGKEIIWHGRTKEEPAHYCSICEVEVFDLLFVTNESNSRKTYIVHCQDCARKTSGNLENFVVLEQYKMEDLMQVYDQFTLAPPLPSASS
# Experimental: Representative compounds were characterized for their inhibition of KDM5 using biotinylated histone substrates. Inhibition was measured in vitro (CEREP Poitier, Le Bois l'Evêque, France) following experimental conditions described in Table 2. Briefly, the test compound, reference compound or water (control) was mixed with about 2-20 ng of recombinant, Human enzymes expressed in Sf9 cells in a buffer containing 45 mM Hepes/Tris (pH 7), 5 μM FAS, 100 μM ascorbic acid, 10 μM 2-oxoglutarate, 0.01% Tween 20 and 0.01% BSA. Thereafter, the reaction was initiated by adding the biotin-labeled substrate, and the mixture was incubated for 10-30 min at room temperature. For basal control measurements, the enzyme was omitted from the reaction mixture. Following incubation the reaction was stopped by adding 1 mM EDTA. After 5 min, the anti-methyl histone antibody labeled with europium chelate and the Ulight streptavidine (Perkin Elmer Waltham, Mass.) were added. After 60 min more, the fluorescence transfer was measured at λex=320 nm and λem=620 and λem=665 nm using a microplate reader (Envision, Perkin Elmer) (LANCE). The enzyme activity was determined by dividing the signal measured at λem=665 nm by that measured at 620 nm (ratio).
# HBV = assay: PHH screening protocol: HBsAg and HBeAg levels by MSD ELISA; assay type: cell-based, Hepatitis B Virus; settings: Hepatitis B virus
# Experimental: HBV antiviral activity was assessed in primary human hepatocytes (PHH) in a 96-well format. PHH were (Life Technologies, Chicago, 11) plated on collagen coated tissue culture plates using Plating Media containing William's Medium E supplemented with 1% Penicillin/Streptomycin, 4 μg/mL human recombinant insulin, 2 mM glutamax, 15 mM Hepes, 1 μM dexamethasone and 5% fetal bovine serum (Life Technologies, Cat#A12176-01 Life Technologies, Chicago, Ill.). After a 4-hour incubation at 37° C., cells were switched to Maintenance Media (Cat#CM4000-A15564 Life Technologies, Chicago, Ill.) containing William's Medium E supplemented with 0.5% Penicillin/Streptomycin, 6.25 μg/mL human recombinant insulin, 6.25 μg/mL human transferrin, 6.25 ng/mL selenous acid, 1.25 mg/mL bovine serum albumin, 5.35 μg/mL linoleic acid, 2 mM glutamax, 15 mM Hepes, 0.1 μM dexamethasone, 2% fetal bovine serum, and 2% DMSO (Cat#D2650 Sigma, St. Louis, Mo.). On the next day, cells were infected with approximately 500 genome equivalent of selected HBV clinical isolates (21P (GTA), 32P (GTA), 91P (GTA), AD38 (GTD), 65P (GTD) or 30P (GTE); ProteoGenex, Culver City, Calif.) per cell in Maintenance Media supplemented with 4% PEG 8000 (Cat#V3011 Promega, Madison, Wis.). After 24 hour incubation cells were washed three times with William's Medium E and fed with fresh Maintenance Media. Small molecule inhibitors targeting KDMs were serially diluted in Maintenance Media and added to cells at 3 days post infection (p.i.). Media with compounds was replenished every 2-3 days. Media collected on various days was used for determination of HBsAg and HBeAg levels by MSD ELISA, and HBV RNA by qPCR. All data were converted into percentages of the untreated control and non-linear regression was performed to calculate EC50 or CC50 values.
# [1] = read-out: HBeAg EC50, HBV-infected PHH
# [2] = read-out: HBsAg EC50, HBV-infected PHH
SMILES,IC50 (KDM4C),IC50 (KDM6A),EC50 (HBV; [1]),EC50 (HBV; [2])
Cc1cc(Cl)ccc1COc1ccnn1-c1cc(C(=O)O)ccn1 [Example 11],0.11 µM,0.074 µM,5.77 µM,4.05 µM
O=C(O)c1ccncc1Nc1nn(CCN2CCC(F)(F)CC2)c2ccc(F)cc12 [Example 13],0.26 µM,0.14 µM,5.97 µM,3.98 µM
N#CNC(=O)c1ccncc1Nc1nn(CCN2CCC(F)(F)CC2)c2ccc(F)cc12 [Example 14],3.1 µM,–,1.09 µM,1.3 µM
CCN(CC)CCCCNCc1cc(C(=O)O)ccn1 [Example 18],0.35 µM,5.5 µM,22.6 µM,19.5 µM

# Source: patent US20160303095A1, “METHODS OF TREATING HEPATITIS B VIRUS” (Gilead Sciences, Inc., priority 2015, published 2016)
